Reference: patent US10413565B2, “Nanostructures for modulating intercellular communication and uses thereof” (Northwestern University, priority 2014, dated 2019)

Assays:
Type in all cases: cell-based
GFP-SR-B1 = target: T1, GFP-SR-B1 (Homo sapiens, UniProt Q8WTV0); assay: GFP-SR-B1 clustering and dynamics (confocal imaging, computer vision analysis); conditions: A375 cells expressing GFP-SR-B1, 24 hrs treatment
T1 construct: expressed in transfected cells
T1 sequence (Q8WTV0 1-552): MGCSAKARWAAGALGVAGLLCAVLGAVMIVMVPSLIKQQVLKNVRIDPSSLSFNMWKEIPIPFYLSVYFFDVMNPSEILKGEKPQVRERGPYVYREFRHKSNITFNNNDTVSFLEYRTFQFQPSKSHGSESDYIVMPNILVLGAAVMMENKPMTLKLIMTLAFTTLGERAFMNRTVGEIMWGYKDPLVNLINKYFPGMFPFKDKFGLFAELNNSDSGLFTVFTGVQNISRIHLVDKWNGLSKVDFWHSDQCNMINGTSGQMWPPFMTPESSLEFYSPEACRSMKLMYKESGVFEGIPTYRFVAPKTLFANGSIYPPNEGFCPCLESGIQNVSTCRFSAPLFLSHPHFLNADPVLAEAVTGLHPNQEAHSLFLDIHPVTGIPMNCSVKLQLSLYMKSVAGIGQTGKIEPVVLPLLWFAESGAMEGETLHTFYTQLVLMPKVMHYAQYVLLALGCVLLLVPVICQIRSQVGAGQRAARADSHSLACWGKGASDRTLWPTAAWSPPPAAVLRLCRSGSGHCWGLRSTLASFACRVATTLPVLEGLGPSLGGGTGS
Excerpt: A semi-automated approach using ImageJ software was employed to identify the areas of GFP-SR-B1 in the images. After background subtraction, an unsharp mask filter with a large radius was applied to locally enhance contrast. Manual thresholding of filtered images was then used to generate a segment mask, which could be overlaid on the original, background subtracted image to facilitate measurement of domain parameters such as area and mean intensity. […]
To calculate the linearity of the motion, we introduced a parameter rho (FIG. 3C), which is calculated as the ratio between the head-to-tail (first point to the end point) trajectory distance divided by the total distance traveled by fluorescent domains. […]
Fluorescence microscopy was performed using an A1R confocal microscope with assistance from the Northwestern University Center for Advanced Microscopy. Images were analyzed using NIS Elements (Nikon) and ImageJ (NIH) software. Live cell confocal fluorescence microscopy to assess lipid raft dynamics was performed with a Nikon Eclipse T1 microscope equipped with an Andor iXon Ultra 897 camera and analyzed using Metamorph software (Molecular Devices).

A375 melanoma cells [1] = assay: 3H-cholesterol efflux assay; conditions: BLT-1 1 μM; acceptors 500 nM
Procedure: A375 cells were cultured in DMEM containing 1 μCi/mL [1,2,-^3H] cholesterol (Perkin-Elmer) overnight to label the cellular cholesterol pool. Cells were then washed in PBS and resuspended in serum free media. Human HDL or HDL NPs were added to the culture media and allowed to incubate for 6 hours. Cell culture media was then collected and subjected to liquid scintillation counting. The percentage of cholesterol efflux was determined by using the formula counts media/(counts cells+counts media)×100. Efflux of cholesterol in the absence of an acceptor was also measured and interpreted along with other results.

A375 melanoma cells [2] = assay: Exosome uptake assay (DiI-labeled exosomes, flow cytometry / fluorescence microscopy); conditions: 24 hrs treatment
Procedure: A375 melanoma exosomes were isolated from conditioned media using differential ultracentrifugation [Thery et al. 2006]. In brief, cells were cultured in exosome deficient media for 72 hours at which point the cell culture media was collected and centrifuged at 2000×g to remove dead cells and debris. Next, larger vesicles and cell debris were removed by centrifugation at 10,000×g for 30 minutes. Exosomes were then pelleted by centrifugation at 100,000×g for 70 minutes, and subsequently washed in PBS by another 100,000×g centrifugation step for 70 minutes. Exosomes were re-suspended in PBS. Protein concentration of exosomes was analyzed by BCA Protein assay (Thermo Scientific). […] In order to test if HDL NPs quenched exosome fluorescence, we incubated HDL NPs with fluorescently labeled exosomes for 4 hours and then measured the fluorescent signal.
The cellular uptake of exosomes was measured by fluorescence microscopy and flow cytometry after cell treatments. […] For fluorescence microscopy experiments, cells were plated on coverslips coated with 0.1% gelatin. Exosome uptake was measured over the course of 24 hours using a BD LSR Fortessa flow cytometer (Robert H. Lurie Comprehensive Cancer Center Flow Cytometry Core) or a Nikon A1R fluorescence microscope (Northwestern University Nikon Imaging Facility).

## CCCCCCC1CCCC1=NNC(N)=S (stereo not drawn) [BLT-1, Blocks Lipid Transport 1]
GFP-SR-B1
  clustering of GFP-SR-B1: did not result in the inhibition of exosome uptake or clustering of the receptor
A375 melanoma cells [1]
  3H-cholesterol efflux to hHDL and HDL NP with BLT-1 treatment: reduced efflux to both hHDLs and HDL NPs
A375 melanoma cells [2]
  inhibition of cellular exosome uptake: did not result in the inhibition of exosome uptake
